Data taken from ChEMBL document CHEMBL1201862, “PubChem BioAssay data set” (2004).
Activity calls are given as the source filed them.

What was measured:
Assay type in all cases: functional
[1] = biological target: T1, Replicative DNA helicase DnaB (Mycobacterium tuberculosis, UniProt P9WMR3); assay: DnaB intein splicing inhibitors, dose response, biochemical, cell-free fluorescence (AID 449749)
T1 sequence (P9WMR3 whole entry): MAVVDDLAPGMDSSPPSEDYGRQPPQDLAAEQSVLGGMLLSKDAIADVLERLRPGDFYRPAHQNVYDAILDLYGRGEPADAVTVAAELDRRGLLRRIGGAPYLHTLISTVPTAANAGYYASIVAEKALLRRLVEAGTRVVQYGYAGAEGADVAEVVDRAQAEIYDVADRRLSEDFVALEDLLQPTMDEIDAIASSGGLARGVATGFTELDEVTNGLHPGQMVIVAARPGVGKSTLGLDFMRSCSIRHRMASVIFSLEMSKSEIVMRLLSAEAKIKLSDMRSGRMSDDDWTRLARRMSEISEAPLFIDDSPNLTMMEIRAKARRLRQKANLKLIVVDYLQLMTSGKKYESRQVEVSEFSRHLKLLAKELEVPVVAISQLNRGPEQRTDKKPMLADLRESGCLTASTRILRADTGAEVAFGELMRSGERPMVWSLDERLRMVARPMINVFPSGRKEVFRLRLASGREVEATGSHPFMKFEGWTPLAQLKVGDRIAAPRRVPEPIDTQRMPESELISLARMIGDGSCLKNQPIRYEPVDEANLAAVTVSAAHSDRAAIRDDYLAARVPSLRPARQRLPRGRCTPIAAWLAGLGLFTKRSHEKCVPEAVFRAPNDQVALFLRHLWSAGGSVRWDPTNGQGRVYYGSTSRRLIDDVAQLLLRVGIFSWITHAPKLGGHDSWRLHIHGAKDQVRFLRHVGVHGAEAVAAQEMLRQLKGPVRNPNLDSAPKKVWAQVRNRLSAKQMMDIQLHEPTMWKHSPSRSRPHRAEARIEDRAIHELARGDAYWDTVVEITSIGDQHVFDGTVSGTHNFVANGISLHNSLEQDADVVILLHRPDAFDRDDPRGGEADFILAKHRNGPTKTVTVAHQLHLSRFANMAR

[2] = biological target: Dual specificity protein kinase CLK2 (Homo sapiens, UniProt P49760)
Sequence of Dual specificity protein kinase CLK2 (P49760 whole entry): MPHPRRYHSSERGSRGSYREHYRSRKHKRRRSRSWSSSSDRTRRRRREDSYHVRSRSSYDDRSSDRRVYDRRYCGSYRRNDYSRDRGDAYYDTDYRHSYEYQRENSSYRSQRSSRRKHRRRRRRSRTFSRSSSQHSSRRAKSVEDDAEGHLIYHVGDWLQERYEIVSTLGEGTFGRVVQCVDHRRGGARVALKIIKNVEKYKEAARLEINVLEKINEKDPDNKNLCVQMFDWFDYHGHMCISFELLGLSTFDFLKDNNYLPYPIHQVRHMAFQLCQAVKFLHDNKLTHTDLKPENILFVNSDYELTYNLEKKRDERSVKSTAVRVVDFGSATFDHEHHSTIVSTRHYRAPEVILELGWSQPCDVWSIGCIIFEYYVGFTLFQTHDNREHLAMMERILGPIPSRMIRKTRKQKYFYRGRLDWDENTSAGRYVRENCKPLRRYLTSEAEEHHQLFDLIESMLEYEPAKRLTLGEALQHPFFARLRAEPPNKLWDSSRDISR

[3] = biological target: Serine/threonine-protein kinase PLK3 (Homo sapiens, UniProt Q9H4B4)
Sequence of Serine/threonine-protein kinase PLK3 (Q9H4B4 whole entry): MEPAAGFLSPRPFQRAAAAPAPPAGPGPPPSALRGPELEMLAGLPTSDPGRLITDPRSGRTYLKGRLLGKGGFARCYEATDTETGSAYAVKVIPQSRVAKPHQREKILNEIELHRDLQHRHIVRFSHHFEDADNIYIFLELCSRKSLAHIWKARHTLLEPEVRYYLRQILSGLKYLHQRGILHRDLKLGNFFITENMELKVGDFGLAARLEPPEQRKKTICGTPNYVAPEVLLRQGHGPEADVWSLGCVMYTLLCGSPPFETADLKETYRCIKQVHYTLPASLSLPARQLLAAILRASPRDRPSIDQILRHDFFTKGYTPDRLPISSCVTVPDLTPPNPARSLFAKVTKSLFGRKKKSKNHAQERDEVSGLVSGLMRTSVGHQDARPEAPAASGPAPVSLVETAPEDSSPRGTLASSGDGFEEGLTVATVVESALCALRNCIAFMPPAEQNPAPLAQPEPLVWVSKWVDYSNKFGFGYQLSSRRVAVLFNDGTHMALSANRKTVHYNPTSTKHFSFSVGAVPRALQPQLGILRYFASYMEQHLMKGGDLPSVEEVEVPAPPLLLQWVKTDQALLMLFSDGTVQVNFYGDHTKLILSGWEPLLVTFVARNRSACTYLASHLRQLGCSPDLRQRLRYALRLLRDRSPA

[4] = biological target: RAC-gamma serine/threonine-protein kinase (Homo sapiens, UniProt Q9Y243)
Sequence of RAC-gamma serine/threonine-protein kinase (Q9Y243 whole entry): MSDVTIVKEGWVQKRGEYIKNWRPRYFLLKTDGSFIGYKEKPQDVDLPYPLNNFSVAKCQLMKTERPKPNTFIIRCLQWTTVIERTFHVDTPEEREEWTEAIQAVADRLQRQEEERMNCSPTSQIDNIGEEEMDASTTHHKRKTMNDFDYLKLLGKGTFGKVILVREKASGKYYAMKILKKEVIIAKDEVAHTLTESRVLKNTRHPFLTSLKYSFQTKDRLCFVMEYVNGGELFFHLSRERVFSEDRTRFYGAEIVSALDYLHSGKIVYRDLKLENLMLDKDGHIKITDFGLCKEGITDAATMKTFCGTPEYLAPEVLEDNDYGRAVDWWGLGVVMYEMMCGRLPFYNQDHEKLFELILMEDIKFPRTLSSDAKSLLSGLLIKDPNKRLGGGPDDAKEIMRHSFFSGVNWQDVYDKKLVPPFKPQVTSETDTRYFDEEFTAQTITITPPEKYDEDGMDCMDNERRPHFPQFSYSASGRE

[5] = biological target: T2, Serine/threonine-protein kinase PLK4 (Homo sapiens, UniProt O00444);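 also: PLK4 measured as one member of a kinome-wide kinase profiling panel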
T2 sequence (O00444 whole entry): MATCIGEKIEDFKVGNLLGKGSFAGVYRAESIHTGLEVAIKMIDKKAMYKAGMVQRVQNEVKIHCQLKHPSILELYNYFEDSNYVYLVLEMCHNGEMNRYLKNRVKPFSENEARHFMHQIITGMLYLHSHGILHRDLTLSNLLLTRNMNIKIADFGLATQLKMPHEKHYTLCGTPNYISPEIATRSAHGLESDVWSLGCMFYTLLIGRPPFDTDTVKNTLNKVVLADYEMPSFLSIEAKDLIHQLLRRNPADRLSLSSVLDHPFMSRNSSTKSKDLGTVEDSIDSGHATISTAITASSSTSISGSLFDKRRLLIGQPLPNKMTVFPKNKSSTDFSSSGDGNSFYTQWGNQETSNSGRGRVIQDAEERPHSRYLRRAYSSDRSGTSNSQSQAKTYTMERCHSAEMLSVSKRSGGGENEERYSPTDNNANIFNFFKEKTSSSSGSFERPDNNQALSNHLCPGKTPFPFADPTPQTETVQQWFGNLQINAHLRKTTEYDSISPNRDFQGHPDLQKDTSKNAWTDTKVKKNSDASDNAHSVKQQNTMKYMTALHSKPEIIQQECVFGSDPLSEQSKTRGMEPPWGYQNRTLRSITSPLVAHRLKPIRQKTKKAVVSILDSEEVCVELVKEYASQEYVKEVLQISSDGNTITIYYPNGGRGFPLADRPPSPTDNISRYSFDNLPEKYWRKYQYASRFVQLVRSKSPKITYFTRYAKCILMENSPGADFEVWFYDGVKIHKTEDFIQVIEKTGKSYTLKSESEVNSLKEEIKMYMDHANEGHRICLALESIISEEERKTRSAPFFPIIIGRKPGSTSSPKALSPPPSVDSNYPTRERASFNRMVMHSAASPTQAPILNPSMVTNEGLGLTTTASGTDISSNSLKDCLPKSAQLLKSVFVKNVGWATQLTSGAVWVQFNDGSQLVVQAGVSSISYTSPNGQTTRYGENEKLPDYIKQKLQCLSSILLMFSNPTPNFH

[6] = biological target: Protein kinase C gamma type (Homo sapiens, UniProt P05129)
[7] = biological target: Dual specificity tyrosine-phosphorylation-regulated kinase 1B (Homo sapiens, UniProt Q9Y463); assay: Navigating the Kinome. Panel member name: DYRK1B
Sequence of Dual specificity tyrosine-phosphorylation-regulated kinase 1B (Q9Y463 whole entry): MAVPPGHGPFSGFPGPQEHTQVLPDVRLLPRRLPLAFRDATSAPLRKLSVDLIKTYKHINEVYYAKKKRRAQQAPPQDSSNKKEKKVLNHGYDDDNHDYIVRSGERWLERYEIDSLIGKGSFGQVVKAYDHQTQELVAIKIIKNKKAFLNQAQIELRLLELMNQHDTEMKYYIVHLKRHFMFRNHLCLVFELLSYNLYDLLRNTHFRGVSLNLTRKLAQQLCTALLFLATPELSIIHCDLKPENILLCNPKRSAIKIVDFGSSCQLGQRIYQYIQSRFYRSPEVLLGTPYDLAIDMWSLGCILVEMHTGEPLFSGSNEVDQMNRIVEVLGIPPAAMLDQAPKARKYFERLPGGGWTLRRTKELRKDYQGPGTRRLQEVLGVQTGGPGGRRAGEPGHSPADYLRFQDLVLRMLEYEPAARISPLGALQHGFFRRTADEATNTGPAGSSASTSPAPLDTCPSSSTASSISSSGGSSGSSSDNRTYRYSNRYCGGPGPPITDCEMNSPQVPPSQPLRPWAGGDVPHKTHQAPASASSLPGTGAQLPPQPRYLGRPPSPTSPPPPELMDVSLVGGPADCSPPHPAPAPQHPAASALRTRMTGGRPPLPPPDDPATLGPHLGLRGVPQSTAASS

[8] = biological target: RAC-alpha serine/threonine-protein kinase (Homo sapiens, UniProt P31749);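 also: AKT1 affinity measured as one member of a kinome-wide kinase profiling panel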
Sequence of RAC-alpha serine/threonine-protein kinase (P31749 whole entry): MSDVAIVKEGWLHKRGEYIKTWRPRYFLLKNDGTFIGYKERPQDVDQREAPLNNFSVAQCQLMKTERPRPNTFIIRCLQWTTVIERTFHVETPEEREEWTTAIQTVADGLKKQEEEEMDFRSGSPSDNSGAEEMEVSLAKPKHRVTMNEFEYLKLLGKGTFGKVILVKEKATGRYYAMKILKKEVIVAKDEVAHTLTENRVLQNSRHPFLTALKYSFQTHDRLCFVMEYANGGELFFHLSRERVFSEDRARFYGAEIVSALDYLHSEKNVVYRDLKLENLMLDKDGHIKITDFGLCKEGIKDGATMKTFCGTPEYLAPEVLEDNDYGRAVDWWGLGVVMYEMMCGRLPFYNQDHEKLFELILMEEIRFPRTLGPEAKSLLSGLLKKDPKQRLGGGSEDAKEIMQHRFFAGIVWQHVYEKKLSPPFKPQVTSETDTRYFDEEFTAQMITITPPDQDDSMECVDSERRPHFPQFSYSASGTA

[9] = biological target: Cyclin-dependent kinase 8 (Homo sapiens, UniProt P49336); assay: Navigating the Kinome. Panel member name: CDK8
Sequence of Cyclin-dependent kinase 8 (P49336 whole entry): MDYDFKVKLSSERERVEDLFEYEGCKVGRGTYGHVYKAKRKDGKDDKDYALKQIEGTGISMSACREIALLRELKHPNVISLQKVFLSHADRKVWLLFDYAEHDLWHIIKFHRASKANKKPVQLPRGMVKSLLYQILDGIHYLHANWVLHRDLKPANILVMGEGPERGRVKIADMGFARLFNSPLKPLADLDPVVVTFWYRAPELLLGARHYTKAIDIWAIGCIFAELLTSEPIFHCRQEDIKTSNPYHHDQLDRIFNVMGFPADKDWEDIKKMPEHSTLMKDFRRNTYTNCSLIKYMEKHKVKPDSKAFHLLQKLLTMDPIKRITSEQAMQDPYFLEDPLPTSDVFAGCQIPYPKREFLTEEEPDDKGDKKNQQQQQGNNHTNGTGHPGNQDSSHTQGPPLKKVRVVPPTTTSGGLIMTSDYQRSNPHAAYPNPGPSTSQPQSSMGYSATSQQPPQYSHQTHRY

[10] = biological target: Serine/threonine-protein kinase PLK1 (Homo sapiens, UniProt P53350);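 also: PLK1 measured as one member of a kinome-wide profiling panel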
Sequence of Serine/threonine-protein kinase PLK1 (P53350 whole entry): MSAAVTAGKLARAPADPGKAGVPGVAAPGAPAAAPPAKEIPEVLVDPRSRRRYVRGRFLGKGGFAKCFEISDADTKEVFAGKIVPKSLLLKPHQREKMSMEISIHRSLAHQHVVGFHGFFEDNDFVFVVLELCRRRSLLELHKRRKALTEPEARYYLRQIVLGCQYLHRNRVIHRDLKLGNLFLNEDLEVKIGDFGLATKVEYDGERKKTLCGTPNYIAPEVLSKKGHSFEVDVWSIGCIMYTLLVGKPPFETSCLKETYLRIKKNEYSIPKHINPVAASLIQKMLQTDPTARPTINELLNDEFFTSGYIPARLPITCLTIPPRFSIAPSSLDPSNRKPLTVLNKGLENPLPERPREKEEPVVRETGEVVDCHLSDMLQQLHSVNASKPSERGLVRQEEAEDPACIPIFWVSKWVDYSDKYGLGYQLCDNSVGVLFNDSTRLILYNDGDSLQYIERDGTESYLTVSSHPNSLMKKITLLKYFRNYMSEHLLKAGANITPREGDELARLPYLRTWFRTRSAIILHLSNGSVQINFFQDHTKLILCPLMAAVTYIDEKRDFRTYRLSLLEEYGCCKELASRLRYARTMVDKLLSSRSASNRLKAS

[11] = biological target: cAMP-dependent protein kinase catalytic subunit alpha (Homo sapiens, UniProt P17612)
[12] = biological target: Dual specificity protein kinase CLK4 (Homo sapiens, UniProt Q9HAZ1)
Sequence of Dual specificity protein kinase CLK4 (Q9HAZ1 whole entry): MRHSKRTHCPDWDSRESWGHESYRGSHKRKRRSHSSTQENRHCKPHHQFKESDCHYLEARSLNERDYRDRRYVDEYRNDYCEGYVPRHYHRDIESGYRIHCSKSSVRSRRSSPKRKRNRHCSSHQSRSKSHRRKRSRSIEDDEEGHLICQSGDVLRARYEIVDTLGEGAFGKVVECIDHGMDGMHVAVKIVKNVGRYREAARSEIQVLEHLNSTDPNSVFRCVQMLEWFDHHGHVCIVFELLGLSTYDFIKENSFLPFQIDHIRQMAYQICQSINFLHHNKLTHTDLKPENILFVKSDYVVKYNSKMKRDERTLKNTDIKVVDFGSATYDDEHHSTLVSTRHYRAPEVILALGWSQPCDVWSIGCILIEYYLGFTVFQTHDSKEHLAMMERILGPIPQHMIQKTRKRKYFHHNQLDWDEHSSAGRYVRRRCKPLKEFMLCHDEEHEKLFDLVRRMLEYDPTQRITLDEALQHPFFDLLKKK

[13] = biological target: Dual specificity tyrosine-phosphorylation-regulated kinase 1A (Homo sapiens, UniProt Q13627);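 also: measured against DYRK1A as one member of a broad kinome profiling panel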
[14] = biological target: Serine/threonine-protein kinase 3 (Homo sapiens, UniProt Q13188);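 also: measured as one member of a kinome-wide kinase panel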
Sequence of Serine/threonine-protein kinase 3 (Q13188 whole entry): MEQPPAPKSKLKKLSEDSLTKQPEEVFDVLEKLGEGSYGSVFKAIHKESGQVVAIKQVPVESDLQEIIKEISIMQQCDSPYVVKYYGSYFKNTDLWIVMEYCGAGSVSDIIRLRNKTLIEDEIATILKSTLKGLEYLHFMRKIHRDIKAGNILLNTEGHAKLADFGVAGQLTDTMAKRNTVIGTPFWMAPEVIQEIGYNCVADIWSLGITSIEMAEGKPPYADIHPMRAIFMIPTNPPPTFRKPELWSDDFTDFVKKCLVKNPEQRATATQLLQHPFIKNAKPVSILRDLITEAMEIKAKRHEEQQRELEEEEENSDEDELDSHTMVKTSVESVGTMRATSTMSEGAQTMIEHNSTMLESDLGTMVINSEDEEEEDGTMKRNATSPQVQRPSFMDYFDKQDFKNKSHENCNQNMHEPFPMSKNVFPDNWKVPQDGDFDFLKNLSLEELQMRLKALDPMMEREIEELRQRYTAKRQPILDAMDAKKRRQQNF

[15] = biological target: T3, Aurora kinase A (Homo sapiens, UniProt O14965);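 also: value from the Navigating the Kinome kinase panel profiling, panel entry STK6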
T3 sequence (O14965 whole entry): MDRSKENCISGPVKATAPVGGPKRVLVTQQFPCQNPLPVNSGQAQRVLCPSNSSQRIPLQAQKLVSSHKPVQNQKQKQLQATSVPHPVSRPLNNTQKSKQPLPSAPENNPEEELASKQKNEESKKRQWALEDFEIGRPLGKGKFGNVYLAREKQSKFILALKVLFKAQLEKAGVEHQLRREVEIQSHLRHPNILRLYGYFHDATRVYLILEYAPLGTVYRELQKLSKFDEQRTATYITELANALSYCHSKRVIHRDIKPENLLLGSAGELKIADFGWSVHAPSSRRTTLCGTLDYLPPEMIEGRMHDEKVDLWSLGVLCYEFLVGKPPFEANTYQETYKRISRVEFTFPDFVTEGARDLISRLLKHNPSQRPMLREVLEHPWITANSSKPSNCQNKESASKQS

SMILES	AC50 [1]	Ki [2]	Ki [3]	Ki [4]	Ki [5]	Ki [6]	Ki [7]	Ki [8]	Ki [9]	Ki [10]	Ki [11]	Ki [12]	Ki [13]	Ki [14]	Ki [15]
COC(=O)CCS(=O)(=O)c1nc(-c2ccccc2)cc(C(F)(F)F)n1	3.44 µM (active)	–	–	–	–	–	–	–	–	–	–	–	–	–	–
O=C(O)c1ccc(NC2=C(Cl)C(=O)c3ccccc3C2=O)cc1	3.36 µM (active)	–	–	–	–	–	–	–	–	–	–	–	–	–	–
O=C(O)c1ccc2c3c(ncnc13)-c1ccccc1C2=O	4.07 µM (active)	–	–	–	–	–	–	–	–	–	–	–	–	–	–
Cc1ccc2nccc(NC(=O)Nc3cccc(C(F)(F)F)n3)c2c1	–	> 2 µM (inactive)	> 7.94 µM (inactive)	> 10 µM (inactive)	> 3.98 µM (inactive)	5.01 µM (active)	> 2.51 µM (inactive)	> 7.94 µM (inactive)	0.2 µM (active)	> 7.94 µM (inactive)	> 7.94 µM (inactive)	0.1 µM (active)	> 1 µM (inactive)	0.158 µM (active)	–
Cc1nn(C)c2sc3c(=O)[nH]cnc3c12	–	–	> 79.4 µM (inactive)	> 100 µM (inactive)	> 39.8 µM (inactive)	–	12.6 µM (active)	> 79.4 µM (inactive)	25.1 µM (active)	> 79.4 µM (inactive)	50.1 µM (active)	3.16 µM (active)	25.1 µM (active)	–	> 63.1 µM (inactive)
Cc1c(/N=C2\C=CC(=O)c3ccccc32)c(=O)n(-c2ccccc2)n1C	1.63 µM (active)	–	–	–	–	–	–	–	–	–	–	–	–	–	–
COc1cc2c(cc1F)C(c1ccccc1Cl)=Nc1c(n[nH]c1C)N2 [RG-1530]	–	2.51 µM (active)	6.31 µM (active)	> 10 µM (inactive)	0.0126 µM (active)	3.98 µM (active)	0.0316 µM (active)	> 7.94 µM (inactive)	> 3.98 µM (inactive)	–	> 3.16 µM (inactive)	1 µM (active)	> 0.794 µM (inactive)	0.0398 µM (active)	0.0251 µM (active)
